Reference: patent US5834452A, “1- or 6-hydroxylated steroids” (Roussel Uclaf, priority 1996, dated 1998)

Experiments:
[1] = molecular target: T1, Human progesterone receptor (HPR) (Homo sapiens, UniProt P06401); assay: Relative bond affinity (RBA), recombinant human progestogen receptor, charcoal dextran technique; assay type: binding; conditions: relative to Trimegestone
T1 construct: made in house; host or cells: SF9 insect cells (ATCC CRL1711), baculovirus, lysate supernatant
T1 sequence (P06401 1-933): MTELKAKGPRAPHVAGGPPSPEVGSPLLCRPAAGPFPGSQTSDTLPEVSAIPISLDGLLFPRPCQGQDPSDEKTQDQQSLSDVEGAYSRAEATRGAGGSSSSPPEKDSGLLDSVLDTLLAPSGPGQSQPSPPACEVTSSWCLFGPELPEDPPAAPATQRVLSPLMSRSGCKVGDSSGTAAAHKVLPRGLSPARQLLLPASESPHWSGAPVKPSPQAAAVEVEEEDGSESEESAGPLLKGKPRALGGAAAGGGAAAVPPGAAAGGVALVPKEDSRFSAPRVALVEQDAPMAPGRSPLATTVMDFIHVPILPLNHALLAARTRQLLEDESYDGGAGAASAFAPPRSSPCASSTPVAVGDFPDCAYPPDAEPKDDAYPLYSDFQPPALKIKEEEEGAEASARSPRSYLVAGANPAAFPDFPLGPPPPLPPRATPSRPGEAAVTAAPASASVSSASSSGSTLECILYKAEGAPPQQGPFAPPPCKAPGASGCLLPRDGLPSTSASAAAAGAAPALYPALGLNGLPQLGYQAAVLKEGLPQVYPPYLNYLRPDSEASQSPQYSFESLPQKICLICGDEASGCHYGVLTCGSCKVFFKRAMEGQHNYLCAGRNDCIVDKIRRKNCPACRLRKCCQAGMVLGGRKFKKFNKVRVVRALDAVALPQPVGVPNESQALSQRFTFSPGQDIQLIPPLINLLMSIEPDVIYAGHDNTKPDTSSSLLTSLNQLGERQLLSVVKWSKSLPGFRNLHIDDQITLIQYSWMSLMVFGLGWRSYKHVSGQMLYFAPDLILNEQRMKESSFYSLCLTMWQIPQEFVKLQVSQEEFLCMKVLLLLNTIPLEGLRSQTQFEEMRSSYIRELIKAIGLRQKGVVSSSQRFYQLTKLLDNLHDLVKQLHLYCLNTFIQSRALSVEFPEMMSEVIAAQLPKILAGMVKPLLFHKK
Source text: The human recombinant receptor (HGR, HPR, HAR, HMR, HER) was used.
Human progesterone receptor (HPR):
The recombinant human progestogen receptor was obtained by the superexpression in a cell system of insects--Baculovirus, according to the methodology described by Webb et al (Journal of Methods in Cell and Molecular Biology, (1990) Vol. 2 No. 4, p. 173-188) and the application of which was described for the expression of human hormonal receptors, for example the human glucocorticoid receptor (Srinivasan et al, Molecular Endocrinology, (1990) Vol. 4 No. 2, p. 209-216.
The BaculoGold Transfection Kit (PharMingen, reference 21000K) was used to insert the cDNA fragment described by Kastner et al (The EMBO Journal, (1990), Vol. 9 No. 5, p. 1603-1614), containing the region coding for the human progestogen receptor and to prepare the corresponding recombinant virus. The recombinant virus obtained in this way was used to express the progestogen receptor in SF9 insect cells (ATCC CRL1711), according to the known methodology cited previously.
2×10^7 to 2.5×10^7 SF9 cells were cultured in a 175 ml "Falcon" flask in the TNM-FH medium supplemented with 10% fetal calf serum (FCS) and with 50 micrograms/ml of gentamycin. After infection, then incubation at 27° C. for 40 to 42 hours, the cells were taken up in 1 ml of lysis buffer (1), lysed by 2 cycles of freezing-thawing (-80° C./ 0° C.), then centrifuged at 4° C. for 30 minutes at 20,900 g. The supernatant, containing the recombinant human progestogen receptor, was stored in liquid nitrogen in quantities of 1 ml.
The supernatant was diluted at the time of use with 10 mM Tris buffer, 0.25M saccharose, HCl pH 7.4 containing 0.1% of gelatin and then incubated at 0° C. for 24 hours with a constant concentration (T) of tritiated 17α, 21-dimethyl-19-nor-Δ^4,9 pregnadiene-3,20-dione in the presence of increasing concentrations of either unlabelled progesterone (0-2500×10^-9 M), or the unlabelled product to be tested (1 to 25000×10^-9 M). The concentration of bound tritiated 17,21-dimethyl-19-nor-Δ^4,9 -pregnadiene-3,20-dione (B) was then measured in each incubate using the charcoal dextran adsorption technique.
Calculation of the relative bond affinity (RBA).
The following two curves were drawn: the percentage of bound tritiated hormone B/BO as a function of the logarithm of the concentration of unlabelled reference hormone or as a function of the logarithm of the concentration of unlabelled test product. The straight line of the following equation was determined: […]
The relative bond affinity (RBA) of the test product was determined by the equation: […]

[2] = tested on: endometrial proliferation (uterine lace); assay: Progestomimetic activity: endometrial transformation in the rabbit (Clauberg-McPhail test); assay type: in vivo; parameters: key to Maximal activity on the uterine lace (McPhail index) / Average uterine lace (McPhail Index): McPhail scale 0–4 with 0.5 steps (endometrial proliferation); conditions: for Average uterine lace (McPhail Index): day 8 to day 11
Protocol: 2. --Determination of the progestomimetic activity of the products of the invention: Endometrial transformation in the rabbit. The animals used were impuberal female rabbits which were 40-45 days old. The animals were treated with estradiol (5 ug/0.2 ml/rabbit in solution of corn oil, 10% ethanol) by subcutaneous route from day 1 to day 5, then the product to be studied was administered from day 8 to day 11. On day 12, the animals were sacrificed and a median portion of each uterine cornua was removed from each animal and fixed in Bouin's liquid for histological study. After fixing, the samples were dehydrated, included, cut, mounted, the paraffin was removed and then the sample was stained with hemalum-eosin-saffron. […] Then, for each of the cornua, a semi-quantitative evaluation of the endometrial proliferation (uterine lace) was carried out by the McPhail scale from 0 to 4 with 0.5 intermediates and the two figures were averaged. Similarly, the degree of hypertrophy of the cornua was evaluated by the same scale. At higher magnification, morphological observations of the mucous membrane or the myometrium could possibly be formulated. The 1-OH metabolite (product A) was tested at doses of 10, 100, 1000 μg/kg by subcutaneous route as well as orally at a dose of 1000 μg/kg. The 6-OH metabolite (product B) was tested at doses of 100, 1000 and 10000 μg/kg subcutaneously. As a control, progesterone was administered at doses of 100 and 1000 μg/kg by subcutaneous route. The averages were produced for the uterine lace (McPhail Index).

Compound | RBA for the human progestogen receptor, times weaker than that of Trimegestone [1] [times] | Average uterine lace (McPhail Index) ([2]; rabbit, 0,01 mg/kg, s/c) | Average uterine lace (McPhail Index) ([2]; rabbit, 0,1 mg/kg, s/c) | Hypertrophy of the cornua ([2]; rabbit, 1 mg/kg p/o route versus s/c route) | Average uterine lace (McPhail Index) ([2]; rabbit, 1 mg/kg, per os) | Average uterine lace (McPhail Index) ([2]; rabbit, 1 mg/kg, s/c, 1 mg/kg) | Maximal activity on the uterine lace (McPhail index) ([2]; rabbit, 1000 μg/kg by subcutaneous route (note)) | Average uterine lace (McPhail Index) ([2]; rabbit, 1 mg/kg, s/c)
C[C@H](O)C(=O)[C@@]1(C)CC[C@H]2[C@@H]3CCC4=CC(=O)C[C@H](O)C4=C3CC[C@@]21C [Product A, [1α, 17β-(S)]-1-hydroxy-17-(2-hydroxy-1-oxopropyl)-17-methyl-Δ^4,9-estradiene-3-one] | 9 | 3,8 | 3,8 | stronger hypertrophy of the cornua | 4 | 3,8 | – | –
CC(=O)[C@H]1CC[C@H]2[C@@H]3CCC4=CC(=O)CC[C@]4(C)[C@H]3CC[C@]12C [Progesterone, reference compound] | – | – | 1,8 | – | – | – | 4 | 3,8
